Test results: patent publication US20210024483A1, “HETEROCYLCOALKENYL DERIVATIVES USEFUL AS AGONISTS OF THE GPR120 AND / OR GPR40” (Janssen Pharmaceutica NV, priority 2018, published 2021)

Legend:
GPR40 = GPR40 (UniProt O14842); assay: GPR40 Calcium Flux Assay; assay type: cell-based; settings: transfected HEK293 cells stably expressing human or rat GPR40; species not given
Procedure: Biological Example 3: In Vitro Assay
Compounds were tested in a calcium flux assay using transfected HEK293 cells stably expressing either human GPR40 or rat GPR40. Human GPR40 expressing cells were cultured in DMEM-High Glucose media supplemented with 10% fetal bovine serum, 1×L-Glutamine, 1× Penicillin/Streptomycin and 500 μg/mL G418. Rat GPR40 expressing cells were cultured in DMEM-High Glucose media supplemented with 10% fetal bovine serum and 1 μg/mL puromycin. Cells were plated into poly-D-lysine coated 384-well plates and cultured overnight in a 37° C. humidified tissue culture incubator under 5% CO2/90% O2 atmosphere.
On the day of the experiment, the culture media was replaced with assay buffer (HBSS, 20 mM HEPES, 0.1% BSA) and the cells incubated at 37° C. for 1 h. Calcium-sensitive fluorescent dye (Fluo 8 No-Wash Calcium Dye, ABD Bioquest) was then added and the cells incubated for another 30 min at 37° C. followed by 15 min at room temperature while protected from the light. The cell plate and a plate of diluted compounds of Formula (I) were loaded into a fluorescent plate reader that added compounds onto the cells while measuring the fluorescence intensity of each well. The plate reader recorded fluorescence intensity at 1 second intervals for 8 min and provided the data for analysis in an Excel format. EC50 values were calculated using Prism (GraphPad) software.

[1] = target: T1, short form of the GPR120 receptor (Homo sapiens, UniProt Q5NUL3); assay: Human GPR120 DiscoveRx PathHunter Beta-Arrestin Assay, Procedure B; assay type: cell-based; settings: PathHunter CHO-K1 GPR120S cells, 5000 cells/well
T1 construct: host or cells: PathHunter CHO-K1 GPR120S beta-Arrestin Cell Line
T1 sequence (Q5NUL3 1-361): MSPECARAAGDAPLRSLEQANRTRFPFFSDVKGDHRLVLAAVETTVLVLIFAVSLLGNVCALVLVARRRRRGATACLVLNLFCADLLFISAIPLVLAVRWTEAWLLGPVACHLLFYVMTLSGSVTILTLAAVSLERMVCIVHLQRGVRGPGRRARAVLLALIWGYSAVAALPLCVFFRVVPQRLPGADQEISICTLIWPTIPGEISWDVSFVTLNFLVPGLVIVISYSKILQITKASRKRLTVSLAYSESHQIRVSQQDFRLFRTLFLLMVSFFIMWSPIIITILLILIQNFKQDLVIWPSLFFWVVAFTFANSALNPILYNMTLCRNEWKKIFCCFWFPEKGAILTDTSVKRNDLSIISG
Text: Human GPR120 DiscoveRx PathHunter® Beta-Arrestin Assay
The binding of an agonist (medium/long chain fatty acids or small molecule agonists) to the G-protein-coupled receptor GPR120 activates phospholipase C, leading to release of intracellular Ca^+2 through the generation of inositol 1,4,5-trisphosphate (InsP3 or IP3). GPR120 activation can also trigger intracellular signaling via recruitment of Beta-Arrestin. In the present method, agonist-induced activation of the human GPR120 receptor is monitored through the use of PathHunter® CHO-K1 GPR120 Beta-Arrestin Cell Line engineered by DiscoveRx, as detailed below. The cell lines were designed to co-express both the ProLink/Enzyme Donor (PK)-tagged GPCR and the Enzyme […] (EA)-tagged Beta-Arrestin fusion proteins. Upon GPR120 receptor stimulation/activation, the EA-tagged Beta-Arrestin portion is translocated to the tagged receptor, where the two enzyme fragments are brought within close proximity. Under these conditions, these fragments can interact and form an active Beta-gal enzyme complex through Enzyme Fragment Complementation (EFC). This active Beta-gal complex can enzymatically hydrolyse the substrate to produce a detectable light signal; therefore, activation as a function of agonist concentration can be expressed as an EC50 value to determine relative compound activities. This in vitro assay therefore serves to assess compound agonist activity of the GPR120.
In Procedure β-arrestin B the cells used were PathHunter® CHO-K1 GPR120S β-Arrestin Cell Line, expressing the short form of the GPR120 receptor (Accession #[…]), with 5000 cells/well.
The selected CHO-K1 GPR120 β-Arrestin cells were cultured in Ham's F12 media supplemented with 10% fetal bovine serum (FBS), 1% Glutamine, 1× p/s, 800 μg/mL G418 and 300 μg/mL Hygromycin B (for selection). Cell stocks were maintained and grown in a sub-confluent state using standard cell culture procedures. The day before the experiment, the cells were harvested with non-enzymatic cell dissociation buffer and re-suspended in complete growth media at the desired concentration. A Corning 384-plate was then seeded with the proper number of cells in a volume of 25 μL, per well. The seeded plates were incubated overnight at 37° C.
On the day of the experiment, the Assay Buffer containing (a) HBSS with Ca^++ and Mg^++, (b) 20 mM HEPES, and (c) 0.1% BSA stabilizer (pH 7.4) was prepared. The growth medium was gently removed from the cell plates and 20 μL of Assay Buffer added to each well. The plate was then incubated at 37° C. for 60 min. Test compounds were serially diluted in Assay Buffer to desired concentrations (more particularly to one or more of the following μM concentrations: 25, 12.5, 6.25, 3.12, 1.56, 0.78, 0.39, 0.19, 0.10, 0.05, 0.02, 0.01). Five μL of compound dilution was then added to each well and the plate incubated at 37° C. for 90 min. The detection reagents were prepared according to the manufacture's instruction. Twelve μL of the detection reagents were added to each well and the plate incubated at room temperature for 60 min.
The plates were read on an EnVision instrument, using Protocol name: Luminescence, Plate type: 384 Costar, Measurement height: 3 mm, Measurement time: 1 s, Aperture: 384 Plate aperture. The % Activity relative to the positive control was calculated using the following equation:
The % Activity values were plotted versus the concentration of test compound and fitted to a sigmoidal dose-response curve with a Hill slope=1 (fixed value) using nonlinear regression with GraphPad Prism 5.0 to calculate the EC50 values. The Fitting Equation was: Y=Bottom+(Top−Bottom)/(1+10^((Log EC50−X)*HillSlope)), where X is the log of the concentration and Y is the response.

Cc1c(CCC(=O)O)ccc(OCC2=C(c3ccc(Cl)cc3)COCC2)c1C [ID No. 745, 3-[4-[[5-(4-chlorophenyl)-3,6-dihydro-2H-pyran-4-yl]methoxy]-2,3-dimethyl-phenyl]propanoic acid]
EC50 (GPR40): > 10000 nM | EC50 [1]: 243 nM
